Columns and labels:
PI3KD = PI3KD (Homo sapiens, UniProt O00329); test: Preliminary safety test on human PI3KD kinase; format: biochemical
[1] = ChromlogD (lipophilicity)
TQ PfPKG (PfPKG_T618Q) = molecular target: T1, TQ PfPKG (PfPKG_T618Q) (Plasmodium falciparum, UniProt Q8I719, T618Q); test: Kinase Glo enzymatic assay, gatekeeper mutant TQ PfPKG; format: biochemical, P. falciparum
T1 construct: His6 (N); host or cells: E. coli BL21
Procedure: Taking advantage of the availability of more than 3,000 thiazole derivatives among the GSK compound collection, cluster 3 was thoroughly investigated for potent and selective inhibitors of WT PfPKG. […] We explored the binding mode by also testing compounds on the gatekeeper mutant enzyme TQ PfPKG. […] These two time points were chosen to give an indication of the speed of kill of the compounds. […] A preliminary safety test was performed on human AuroraB and LCK kinases which often underpin toxicity issues. […] Further assays for compound characterization included determination of solubility and cytotoxicity (HepG2 inhibition). Thiazoles have been previously identified as human BRaf inhibitors that are used to treat melanoma.
(§1) Protein production was outsourced to the Division of Signal Transduction Therapy, University of Dundee. Briefly, the pTRChis expression vectors (Invitrogen) containing an N-terminally His6-tagged PfPKG wildtype and T618Q were used to transform BL21 cells (protocol adapted from[23]). The cells were grown at 37 °C until the OD600 was 0.4–0.6 then the temperature was reduced to 15 °C and the cells were induced with 250 µM IPTG and grown for a further 16–18 hours before harvesting. The His6-PfPKG was purified on Cobalt agarose followed by gel filtration and the protein was dialysed into 25 mM Hepes pH 7.5, 0.1 mM EGTA, 150 mM NaCl, 50% glycerol and 2 mM DTT.
(§2) Initial optimization of the PKG assay was performed manually in 384-well plates and analysed with GraFit 7. The buffer for all assays was 25 mM HEPES pH 7.3 (GIBCO), 10 mM MgCl2 (Sigma), 2 mM DTT (Sigma), 0.01 mM cGMP (Sigma), 0.1 mg/ml BSA (Ambion). Enzymatic activity was tested using a luminescence-based kit (Promega KinaseGlo). Addition of the first reagent depletes the unused ATP and addition of the second reagent converts ADP (product of the kinase reaction) to ATP, which is then measured through a luciferin/luciferase reaction. The amount of luminescence is directly proportional to ATP turnover by the kinase. The kit was chosen because it can be miniaturized to small volumes (i.e. 4 µl) in 1536-well plates, for use in HTS.
(§3) We used PKA peptide substrate (SCP0212, Sigma-Aldrich) for WT and TQ PfPKG, dissolved in milliQ water at a final concentration of 5 mM, and Long S6 peptide substrate (produced at the University of Dundee, sequence […]) for HuPKGIα, dissolved in water at a final concentration of 30 mM.
(§4) We calculated the Michaelis-Menten (Km) constant for ATP and peptide substrate (PKA or Long S6) for all enzymes using GraphPad Prism (Supplementary Figs 2 and 3 and Supplementary Table 3). In order to identify different types of PKG inhibitors, including ATP competitive or non-competitive inhibitors, as well as inhibitors that bind to the peptide substrate pocket, we performed all assays using ATP and peptide substrate at a concentration equal to the Km. We also determined enzyme activity by calculating ATP turnover (Kcat) over the Km (Supplementary Table 3). The Kcat was calculated as (Vmax*slope)/[E] where Vmax is the maximum velocity and [E] is the concentration of the enzyme.
(§5) The plates containing the compounds were prepared at GSK in Upper Providence or Stevenage. Compounds were tested at a single final concentration of 10 µM or in a dose response with a range of concentrations starting from 100 μM to 1.6 nM (1 in 3 serial dilutions). Compounds were dispensed in the plates at the required concentration in a 40 nl volume. All plates (1536-well white Greiner) contained 40 nl of DMSO in lanes 11 and 12 (control 1, 100% enzyme activity) and were empty in lanes 35 and 36 (control 2, 0% enzyme activity). The plates were removed from −20 °C 1 hour before starting the assay. Using a Multidrop Combi dispenser (Thermo Scientific), 2 µl of the buffer containing ATP and the substrate were added to all wells then 2 µl of buffer only were added to column 35 and 36. […]

LCK = LCK (Homo sapiens, UniProt P06239); test: Preliminary safety test on human LCK kinase; format: biochemical
Procedure: We explored the binding mode by also testing compounds on the gatekeeper mutant enzyme TQ PfPKG. […] A preliminary safety test was performed on human AuroraB and LCK kinases which often underpin toxicity issues. […] Further assays for compound characterization included determination of solubility and cytotoxicity (HepG2 inhibition).

WT PfPKG = molecular target: T2, WT PfPKG (Plasmodium falciparum, UniProt Q8I719); test: Kinase Glo enzymatic assay, recombinant WT PfPKG; format: biochemical, P. falciparum
T2 construct: recombinant full length wild type (WT) PfPKG; His6 (N); host or cells: E. coli BL21
Procedure: To identify new PKG inhibitor scaffolds, the 1.7 million GlaxoSmithKline Full Diversity collection was tested at a single final concentration of 10 μM against recombinant full length wild type (WT) PfPKG using a Kinase Glo-based assay (Promega). The results gave a robust Z′ mean value of 0.85. At an average statistical cut-off of 30%, 20,174 primary hits were identified with an overall hit rate of 1%. Fresh samples of these primary hits were tested in duplicate against WT PfPKG and also against human PKGIα (HuPKGIα) (Supplementary Fig. 1) at a final concentration of 10 μM (confirmation step).
as §1, §2, §3, §4
as §5, with “36. Finally 2 µl of buffer containing the enzyme were dispensed in all the plate wells except for lanes 35 and 36.” for “36.”

PFI = format: physicochemical
Procedure: Dose response assays were performed in duplicate on WT PfPKG, HuPKGIα and a mock assay performed in the absence of enzyme (the counterscreen). Comparison of the PfPKG and HuPKGIα IC50 values gave information on selectivity and the counterscreen identified luminescent false positive compounds (see Materials and Methods). Cytotoxicity assays were also performed using a human hepatoma cell line (HepG2)[30]. […] This set of compounds was clustered by similarity using a complete-linkage algorithm and a threshold of 0.55[31]. A total of 79 clusters and 54 singletons were obtained.

[2] = WT PfPKG (μM), recombinant WT PfPKG

T1 sequence (Q8I719 whole entry T618Q): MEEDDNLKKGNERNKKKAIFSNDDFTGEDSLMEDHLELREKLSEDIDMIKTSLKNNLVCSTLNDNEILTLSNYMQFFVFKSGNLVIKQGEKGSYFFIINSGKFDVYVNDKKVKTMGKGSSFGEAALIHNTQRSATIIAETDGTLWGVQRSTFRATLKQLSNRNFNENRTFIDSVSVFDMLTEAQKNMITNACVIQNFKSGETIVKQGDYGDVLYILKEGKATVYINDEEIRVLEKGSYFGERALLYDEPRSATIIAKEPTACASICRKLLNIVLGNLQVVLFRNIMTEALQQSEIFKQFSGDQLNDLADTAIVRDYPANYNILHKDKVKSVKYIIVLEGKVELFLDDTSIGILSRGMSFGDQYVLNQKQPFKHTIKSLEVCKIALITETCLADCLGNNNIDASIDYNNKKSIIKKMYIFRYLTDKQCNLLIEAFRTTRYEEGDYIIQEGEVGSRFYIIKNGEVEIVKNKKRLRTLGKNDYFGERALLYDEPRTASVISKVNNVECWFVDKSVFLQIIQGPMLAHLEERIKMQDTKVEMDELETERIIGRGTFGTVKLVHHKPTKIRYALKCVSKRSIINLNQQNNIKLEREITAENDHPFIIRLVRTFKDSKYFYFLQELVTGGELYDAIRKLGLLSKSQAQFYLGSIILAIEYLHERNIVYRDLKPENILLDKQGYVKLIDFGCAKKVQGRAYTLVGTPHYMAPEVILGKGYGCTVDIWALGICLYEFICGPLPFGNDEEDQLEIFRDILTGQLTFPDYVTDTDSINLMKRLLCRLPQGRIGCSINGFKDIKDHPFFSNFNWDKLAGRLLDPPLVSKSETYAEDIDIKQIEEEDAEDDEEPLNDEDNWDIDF
LCK, sequence (P06239 whole entry): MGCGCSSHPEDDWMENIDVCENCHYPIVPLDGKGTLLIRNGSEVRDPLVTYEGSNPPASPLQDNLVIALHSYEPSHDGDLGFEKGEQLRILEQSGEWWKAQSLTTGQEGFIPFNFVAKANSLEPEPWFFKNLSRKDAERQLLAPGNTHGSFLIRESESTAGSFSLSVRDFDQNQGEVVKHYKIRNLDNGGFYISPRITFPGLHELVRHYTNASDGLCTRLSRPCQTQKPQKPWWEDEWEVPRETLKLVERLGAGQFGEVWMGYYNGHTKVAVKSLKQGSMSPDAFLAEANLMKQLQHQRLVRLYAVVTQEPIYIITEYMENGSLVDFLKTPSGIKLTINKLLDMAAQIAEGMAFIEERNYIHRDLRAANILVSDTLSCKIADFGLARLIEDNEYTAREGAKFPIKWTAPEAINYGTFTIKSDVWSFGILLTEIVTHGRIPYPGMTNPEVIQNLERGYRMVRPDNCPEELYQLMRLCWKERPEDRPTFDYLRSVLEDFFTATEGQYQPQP
T2 sequence (Q8I719 whole entry): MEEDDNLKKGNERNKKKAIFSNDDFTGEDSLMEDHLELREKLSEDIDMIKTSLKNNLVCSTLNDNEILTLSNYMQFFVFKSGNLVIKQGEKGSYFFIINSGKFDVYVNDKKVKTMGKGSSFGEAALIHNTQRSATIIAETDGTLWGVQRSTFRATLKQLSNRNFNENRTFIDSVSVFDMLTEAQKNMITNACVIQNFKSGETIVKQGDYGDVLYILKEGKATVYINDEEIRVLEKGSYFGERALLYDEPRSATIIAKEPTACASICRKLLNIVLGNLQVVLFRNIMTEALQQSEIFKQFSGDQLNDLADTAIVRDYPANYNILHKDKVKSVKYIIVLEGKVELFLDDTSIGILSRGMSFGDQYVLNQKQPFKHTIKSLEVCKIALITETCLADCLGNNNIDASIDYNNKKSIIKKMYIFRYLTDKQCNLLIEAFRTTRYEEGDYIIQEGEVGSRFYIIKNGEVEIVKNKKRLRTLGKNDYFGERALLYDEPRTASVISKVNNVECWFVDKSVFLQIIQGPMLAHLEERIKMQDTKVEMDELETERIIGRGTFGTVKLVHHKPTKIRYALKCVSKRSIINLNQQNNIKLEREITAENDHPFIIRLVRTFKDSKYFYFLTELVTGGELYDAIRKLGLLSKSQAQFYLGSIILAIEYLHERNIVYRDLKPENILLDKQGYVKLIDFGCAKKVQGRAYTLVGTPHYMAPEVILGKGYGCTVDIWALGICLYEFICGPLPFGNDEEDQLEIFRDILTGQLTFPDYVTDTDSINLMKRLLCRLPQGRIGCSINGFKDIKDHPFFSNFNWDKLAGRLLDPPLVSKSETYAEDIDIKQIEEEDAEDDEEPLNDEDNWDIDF
PI3KD, sequence (O00329 whole entry): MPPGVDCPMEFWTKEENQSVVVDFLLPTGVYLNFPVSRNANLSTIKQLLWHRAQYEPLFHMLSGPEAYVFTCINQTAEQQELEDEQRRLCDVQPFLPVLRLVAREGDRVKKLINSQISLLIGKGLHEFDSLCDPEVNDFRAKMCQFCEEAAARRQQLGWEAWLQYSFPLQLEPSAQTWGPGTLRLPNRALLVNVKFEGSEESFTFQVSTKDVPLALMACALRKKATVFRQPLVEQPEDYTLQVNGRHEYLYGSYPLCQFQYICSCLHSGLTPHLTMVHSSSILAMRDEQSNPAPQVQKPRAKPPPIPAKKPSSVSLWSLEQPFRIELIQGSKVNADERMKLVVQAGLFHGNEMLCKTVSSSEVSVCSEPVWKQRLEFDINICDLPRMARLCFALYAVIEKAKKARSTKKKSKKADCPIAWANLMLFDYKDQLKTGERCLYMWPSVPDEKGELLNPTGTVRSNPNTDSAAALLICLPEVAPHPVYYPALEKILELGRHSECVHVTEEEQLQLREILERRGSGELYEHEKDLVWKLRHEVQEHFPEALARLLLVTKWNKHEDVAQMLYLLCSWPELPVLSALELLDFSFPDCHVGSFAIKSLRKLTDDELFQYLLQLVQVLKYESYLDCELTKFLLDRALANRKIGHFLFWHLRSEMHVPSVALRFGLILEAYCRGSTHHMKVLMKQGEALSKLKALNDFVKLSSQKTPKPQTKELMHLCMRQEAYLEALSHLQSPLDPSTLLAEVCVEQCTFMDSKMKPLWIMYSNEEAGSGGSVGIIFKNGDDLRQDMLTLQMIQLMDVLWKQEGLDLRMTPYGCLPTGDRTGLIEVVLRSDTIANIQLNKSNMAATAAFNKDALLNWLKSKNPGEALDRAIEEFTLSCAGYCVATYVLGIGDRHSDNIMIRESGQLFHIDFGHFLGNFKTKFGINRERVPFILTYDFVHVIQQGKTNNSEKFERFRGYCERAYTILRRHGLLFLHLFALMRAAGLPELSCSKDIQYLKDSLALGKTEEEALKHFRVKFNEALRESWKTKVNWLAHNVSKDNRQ
PI3KD, sequence (P27986 whole entry partner): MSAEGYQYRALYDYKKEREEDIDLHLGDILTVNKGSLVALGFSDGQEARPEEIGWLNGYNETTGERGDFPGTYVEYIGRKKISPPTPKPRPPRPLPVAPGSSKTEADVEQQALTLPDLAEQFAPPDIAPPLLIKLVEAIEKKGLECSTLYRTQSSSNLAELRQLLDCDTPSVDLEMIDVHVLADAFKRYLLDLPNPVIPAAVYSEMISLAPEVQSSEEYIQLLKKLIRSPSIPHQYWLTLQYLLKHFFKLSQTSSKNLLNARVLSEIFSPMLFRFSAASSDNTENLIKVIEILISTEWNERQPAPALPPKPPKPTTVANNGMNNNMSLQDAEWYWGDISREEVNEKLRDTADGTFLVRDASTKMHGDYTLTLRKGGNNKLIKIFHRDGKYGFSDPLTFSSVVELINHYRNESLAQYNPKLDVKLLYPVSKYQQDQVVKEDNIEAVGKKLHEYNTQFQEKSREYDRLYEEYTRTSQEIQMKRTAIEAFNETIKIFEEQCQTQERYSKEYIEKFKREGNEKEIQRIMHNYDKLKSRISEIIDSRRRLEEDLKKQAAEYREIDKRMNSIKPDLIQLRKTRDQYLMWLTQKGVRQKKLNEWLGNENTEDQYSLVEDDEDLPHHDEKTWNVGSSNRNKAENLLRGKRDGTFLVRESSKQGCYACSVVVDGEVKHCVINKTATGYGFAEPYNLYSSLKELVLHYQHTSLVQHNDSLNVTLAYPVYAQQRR

| Compound | IC50 (PI3KD) [µM] | chromatographic logD [1] | IC50 (TQ PfPKG (PfPKG_T618Q)) [µM] | IC50 (LCK) [µM] | IC50 (WT PfPKG; [2]) [µM] | PFI (PFI) | IC50 (WT PfPKG; IC50 (WT PfPKG activity), Figure 3, most scored compound of each cluster and singletons) [µM] |
| --- | --- | --- | --- | --- | --- | --- | --- |
| CCn1cc(-c2ccncn2)c(-c2cccc(NS(=O)(=O)c3cc(F)ccc3F)c2)n1 [Compound 2] | > 50.1 | 4 | > 100 | 7.9 | 0.041 | 8.0 |  |
| Cc1ccc(S(C)(=O)=O)cc1Nc1nccc(-c2sc(CC(N)=O)nc2-c2ccccc2)n1 [Compound 3] | 0.0794 | 3.3 | 19.1 | 0.251 | 0.013 | 7.3 |  |
| CC(C)(CN)c1cc(-c2ccc(Cl)c(O)c2)c(-c2ccncc2)o1 [Compound 4] | > 50.1 | 3.1 | 36.7 | 0.126 | 0.0017 | 6.1 | 0.002 |
| CCn1c(-c2nonc2N)nc2c(-c3ccccc3)ncc(CN(C)C3CCN(C)CC3)c21 [Compound 5] | > 50.1 | 3.7 | 21.9 | 12.6 | 0.039 | 7.7 |  |
| CNS(=O)(=O)c1cccc(Nc2ccnc(Nc3cccc(S(=O)(=O)NC)c3)n2)c1 [Compound 6] | 2.5 | 3.4 | 0.188 | 2 | 0.07 | 6.4 |  |
| COc1ccc(-c2c(-c3cccc(C(=O)N4CCN(C)CC4)c3)oc3ncnc(N)c23)cc1 [Compound 7] | 39.8 | 2.6 | 14.1 | 0.4 | 0.01 | 6.6 |  |
| COc1ccc(CCNC(=O)CSc2ncnc3[nH]ncc23)cc1OC [Compound 8] | > 50.1 | 2.3 | 22.1 | > 31.6 | 0.104 | 5.3 |  |
| COc1cccc(Nc2nc(-c3ccncc3)cc(N3CCN(C)CC3)n2)c1 [Compound 9] | > 50.1 | 3.6 | 10 | > 31.6 | 0.027 | 6.6 |  |
| COc1cc(CS(C)(=O)=O)ccc1Nc1nc(Nc2cc(F)ccc2C(N)=O)c2cc[nH]c2n1 [Compound 10] | > 50.1 | 3.3 | 0.0248 | > 31.6 | 0.05 | 7.3 |  |
| O=C(N[C@@H](CO)c1ccccc1)c1ccc2cncc(-c3cn[nH]c3)c2n1 [Compound 11] | 7.9 | 1.9 | 1 | 1 | 0.094 | 5.9 |  |
| NCCNCc1ccc(-c2cc3ccncc3cc2OC2CCNCC2)s1 [Compound 12] |  | -0.36 | 0.851 | 4 | 0.324 | 2.6 |  |
| CNCCOc1cnc(-c2ccoc2C)c(-c2ccc3cnccc3c2)c1 [Compound 13] | > 50.1 | 2.1 | 1.3 | 1.3 | 0.007 | 6.1 |  |
| O=C(c1cccc(OCc2cccnc2)c1)N1CCc2sccc2C1CN1CCCCC1 (stereo not drawn) [Compound 14] | > 50.1 | 3.9 | 0.473 | > 31.6 | 0.036 | 6.9 |  |
| Nc1ccc2c(-c3ccncc3)c(-c3ccc(Cl)c(O)c3)[nH]c2n1 [Compound 15] | 10 | 2.1 | 24 | 5 | 0.022 | 6.1 |  |
| Nc1nc(Nc2cccc3cnccc23)nn1C(=O)C1CCCCC1 [Compound 16] | > 50.1 | 4.6 | 1.8 | > 31.6 | 0.09 | 7.6 |  |

— paper PMC6504873, “High-throughput screening of the Plasmodium falciparum cGMP-dependent protein kinase identified a thiazole scaffold which kills erythrocytic and sexual stage parasites” (Scientific Reports, 2019)
